Results on 41 compounds are retold here after patent publication US12428427B2, “Methods and compositions for targeting PD-L1” (Aligos Therapeutics, Inc., priority 2021, dated 2025).

Where only a bound is given, the exact number is not on record here.

For one assay, the target named is T1, PD-1/PD-L1 interaction (Homo sapiens, UniProt Q9NZQ7).
T1 construct: expressed in transfected cells; Jurkat cells (PD-1 plus NFAT-luciferase)
As to the kind of experiment: PD-1/PD-L1 NFAT Reporter Assay. Particulars: co-culture of PD-L1 expressing CHO cells and PD-1 overexpressing Jurkat cells, 6 hrs, NFAT luciferase. The class given is cell-based. The protocol: Blocking the PD-1/PD-L1 interaction will release the inhibitory signal and results in TCR signaling and NFAT-mediated luciferase activity.
CHO cells expressing surface-bound anti-CD3 antibodies and PD-L1 were first seeded overnight and treated with the compounds. Jurkat cells overexpressing PD-1 and a luciferase construct under NFAT promoter were then immediately seeded on the monolayer of CHO cells. The co-culture was then incubated for 6 hrs at 37° C. Luciferase activity was assessed by adding the ONE-Glo reagent and measuring luminescence with a plate reader. EC50 values were determined from the fit of the dose-response curves.
In general terms: Reporter assays use an easily measured gene product as a stand-in for the process of interest.

The target of another assay is PDL1/PD1 (Homo sapiens, UniProt Q9NZQ7). The assay can be described thus: PDL1/PD1 Binding Assay. The conditions noted are these: PDL1-6×His 0.3 nM, PD1-Fc-Avi-Biotin 2.5 nM, Acceptor/Donor beads; read-out: PD-1/PD-L1 PPI IC50. The protocol:
Compounds to be tested were serially diluted in DMSO, and further diluted in assay buffer (25 mM Hepes pH 7.4, 150 mM NaCl, 0.005% Tween 20, BSA 0.01%). Diluted compounds were added to the wells with final concentration of DMSO at 1%. PDL1-6×His protein was added to the wells, mixed well with compound. The plates were incubated for 30 min at room temperature. PD1-Fc-Avi-Biotin protein was added to the wells. Final concentration of PDL1 and PD1 protein is 0.3 nM and 2.5 nM, respectively. After a binding time of 30 min at room temperature, Anti-6×His Acceptor beads (final concentration 20 ug/ml) were added to the wells, and the incubation continued for 1 h. Streptavidin Donor beads (final concentration 20 ug/mL) were added at reduced light. The plates were sealed with foil and incubated in the dark for additional 1 h or overnight before reading on an Envision reader. The IC50 values were determined by fitting the curves using a four-parameter equation in Graphpad Prism 8.

Sequence of PDL1/PD1 (Q9NZQ7 19-238 limits assumed): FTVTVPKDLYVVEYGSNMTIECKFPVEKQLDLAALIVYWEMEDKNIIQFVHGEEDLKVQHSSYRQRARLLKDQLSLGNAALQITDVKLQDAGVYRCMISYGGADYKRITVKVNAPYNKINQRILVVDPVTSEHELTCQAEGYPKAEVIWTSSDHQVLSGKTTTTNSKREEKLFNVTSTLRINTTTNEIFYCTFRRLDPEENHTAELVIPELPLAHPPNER
T1 sequence (Q9NZQ7 19-290): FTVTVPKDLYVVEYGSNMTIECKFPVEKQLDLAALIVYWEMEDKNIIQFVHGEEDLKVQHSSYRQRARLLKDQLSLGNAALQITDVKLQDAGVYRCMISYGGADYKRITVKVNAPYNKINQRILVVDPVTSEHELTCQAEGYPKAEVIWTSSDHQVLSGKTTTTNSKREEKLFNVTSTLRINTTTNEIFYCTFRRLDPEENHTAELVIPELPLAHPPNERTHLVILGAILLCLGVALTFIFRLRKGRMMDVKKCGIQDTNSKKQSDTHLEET

What is called EC50 is the concentration needed to bring the measured effect to its halfway point. Low values mean greater potency, high ones weaker potency. Consider `COC(=O)C1(F)CN(Cc2ccc(-c3cccc(-c4cccc(NC(=O)c5ccnn(C)c5=O)c4Cl)c3Cl)nc2OC)C1` [Compound C-18], for which the EC50 at PD-1/PD-L1 interaction is 10 to 100 nM. The IC50 on PDL1/PD1 is at most 10 nM.
In the same order, the values of `COc1nc(-c2cccc(-c3cccc(NC(=O)c4ccnn(C)c4=O)c3Cl)c2Cl)ccc1CN1CC(F)(C(=O)O)C1` [Compound C-19] are 10 to 100 nM and at most 10 nM.
Consider `COc1nc(-c2cccc(-c3cccc(NC(=O)c4ccnn(C)c4=O)c3Cl)c2Cl)ccc1CN1CC(C)(C(=O)O)C1` [Compound C-20], for which the EC50 on PD-1/PD-L1 interaction was in the range of 10 to 100 nM. The IC50 at PDL1/PD1 was at most 10 nM.
For the compound `CCOC(=O)C1(C)CN(Cc2ccc(-c3cccc(-c4cccc(NC(=O)c5ccnn(C)c5=O)c4Cl)c3Cl)nc2OC)C1` [Compound C-21], the EC50 on PD-1/PD-L1 interaction lay in the range of 100 to 1000 nM. The IC50 at PDL1/PD1 was in the range of 10 to 100 nM.
`COC(=O)C12CCC(CC1)N(Cc1ccc(-c3cccc(-c4cccc(NC(=O)c5ccnn(C)c5=O)c4Cl)c3Cl)nc1OC)C2` [Compound C-22]: on PD-1/PD-L1 interaction, the EC50 fell in the range of 100 to 1000 nM. Besides, at PDL1/PD1, the IC50 was at most 10 nM.
For `COc1nc(-c2cccc(-c3cccc(NC(=O)c4ccnn(C)c4=O)c3Cl)c2Cl)ccc1CN1CCN(C(=O)OC(C)(C)C)[C@H](C(=O)O)C1` [Compound C-23], in that order: above 5000 nM and at most 10 nM.
For `COc1nc(-c2cccc(-c3cccc(NC(=O)c4ccnn(C)c4=O)c3Cl)c2Cl)ccc1CN1CCN(C(=O)OC(C)(C)C)[C@@H](C(=O)O)C1` [Compound C-24], in that order: 100 to 1000 nM and at most 10 nM.
As to `COc1nc(-c2cccc(-c3cccc(NC(=O)c4ccnn(C)c4=O)c3Cl)c2Cl)ccc1CNCCCC(=O)O` [Compound C-25], the EC50 at PD-1/PD-L1 interaction was in the range of 10 to 100 nM. At PDL1/PD1, the IC50 is at most 10 nM.
For `COc1nc(-c2cccc(-c3cccc(NC(=O)c4ccnn(C)c4=O)c3Cl)c2Cl)ccc1CN1CC2(C(=O)O)CCC1CC2` [Compound C-27], at PD-1/PD-L1 interaction, the EC50 was 100 to 1000 nM. The IC50 on PDL1/PD1 was at most 10 nM.
For `COc1nc(-c2cccc(-c3cccc(NC(=O)c4ccnn(C)c4=O)c3Cl)c2Cl)ccc1CN[C@H](C(=O)O)C(C)C` [Compound C-28], in that order: 100 to 1000 nM and at most 10 nM.
As to `COc1nc(-c2cccc(-c3cccc(NC(=O)c4ccnn(C)c4=O)c3Cl)c2Cl)ccc1CN[C@@H](C)C(=O)O` [Compound C-29], the EC50 on PD-1/PD-L1 interaction was 10 to 100 nM. In addition, the IC50 on PDL1/PD1 is at most 10 nM.
As for `COc1nc(-c2cccc(-c3cccc(NC(=O)c4ccnn(C)c4=O)c3Cl)c2Cl)ccc1CN1CCO[C@@H](C(=O)O)C1` [Compound C-30], the half-maximal effective concentration (EC50) at PD-1/PD-L1 interaction was in the range of 100 to 1000 nM. Also, on PDL1/PD1, the IC50 is at most 10 nM.
For `COc1nc(-c2cccc(-c3cccc(NC(=O)c4ccnn(C)c4=O)c3Cl)c2Cl)ccc1CN1C[C@H](C(=O)O)C(C)(C)C1` [Compound C-31], the EC50 on PD-1/PD-L1 interaction is 10 to 100 nM. The IC50 on PDL1/PD1 was at most 10 nM.
For `COc1nc(-c2cccc(-c3cccc(NC(=O)c4ccnn(C)c4=O)c3Cl)c2Cl)ccc1CN1CCC[C@@H]1CC(=O)O` [Compound C-33], in that order: 10 to 100 nM and at most 10 nM.
In the same order, the values of `COc1nc(-c2cccc(-c3cccc(NC(=O)c4ccnn(C)c4=O)c3Cl)c2Cl)ccc1CN1CCC[C@H]1CC(=O)O` [Compound C-34] are 10 to 100 nM and at most 10 nM.
For `COc1nc(-c2cccc(-c3cccc(NC(=O)c4ccnn(C)c4=O)c3Cl)c2Cl)ccc1CNCC(C)(C)C(=O)O` [Compound C-35], in that order: 10 to 100 nM and at most 10 nM.
The compound `COc1nc(-c2cccc(-c3cccc(NC(=O)c4ccnn(C)c4=O)c3Cl)c2Cl)ccc1CNC[C@H](C)C(=O)O` [Compound C-36] showed a concentration for a half-maximal effect (EC50) on PD-1/PD-L1 interaction of 10 to 100 nM. The IC50 at PDL1/PD1 was at most 10 nM.
For `COc1nc(-c2cccc(-c3cccc(NC(=O)c4ccnn(C)c4=O)c3Cl)c2Cl)ccc1CNC[C@@H](C)C(=O)O` [Compound C-37], in that order: 10 to 100 nM and at most 10 nM.
`COc1nc(-c2cccc(-c3cccc(NC(=O)c4ccnn(C)c4=O)c3Cl)c2Cl)ccc1CNC[C@H](O)C(=O)O` [Compound C-38] yielded an EC50 on PD-1/PD-L1 interaction of 10 to 100 nM. For the same compound, the IC50 at PDL1/PD1 was at most 10 nM.
At PD-1/PD-L1 interaction, `COc1nc(-c2cccc(-c3cccc(NC(=O)c4ccnn(C)c4=O)c3Cl)c2Cl)ccc1CNC1CCC[C@@H]1C(=O)O` (stereo partly shown) [Compound C-39] registered an EC50 of 10 to 100 nM. Moreover, at PDL1/PD1, the IC50 is at most 10 nM.
`COc1nc(-c2cccc(-c3cccc(NC(=O)c4ccnn(C)c4=O)c3Cl)c2Cl)ccc1CN[C@H]1CCC[C@H]1C(=O)O` [Compound C-40] gave an EC50 on PD-1/PD-L1 interaction of 100 to 1000 nM. The IC50 at PDL1/PD1 is at most 10 nM.
Turning to `COc1nc(-c2cccc(-c3cccc(NC(=O)c4ccnn(C)c4=O)c3Cl)c2Cl)ccc1CN1CC(O)(C(=O)O)C1` [Compound C-41], at PD-1/PD-L1 interaction, the EC50 lay in the range of 10 to 100 nM. The IC50 at PDL1/PD1 was at most 10 nM.
For `COc1nc(-c2cccc(-c3cccc(NC(=O)c4ccnn(C)c4=O)c3Cl)c2Cl)ccc1CN1CC(CC(=O)O)C1` [Compound C-42], in that order: 10 to 100 nM and at most 10 nM.
For `COc1nc(-c2cccc(-c3cccc(NC(=O)c4ccnn(C)c4=O)c3Cl)c2Cl)ccc1CN1CCO[C@H](C(=O)O)C1` [Compound C-44], in that order: 10 to 100 nM and at most 10 nM.
For `COc1nc(-c2cccc(-c3cccc(NC(=O)c4ccnn(C)c4=O)c3Cl)c2Cl)ccc1CN[C@@H](CO)C(=O)O` [Compound C-47], in that order: 10 to 100 nM and at most 10 nM.
In the case of `COc1nc(-c2cccc(-c3cccc(NC(=O)c4ccnn(C)c4=O)c3Cl)c2Cl)ccc1CN1C[C@@H](C(=O)O)C(C)(C)C1` [Compound C-48], on PD-1/PD-L1 interaction, the EC50 lay within 100 to 1000 nM. In addition, the IC50 on PDL1/PD1 is at most 10 nM.
On PD-1/PD-L1 interaction, `COc1nc(-c2cccc(-c3cccc(NC(=O)c4ccnn(C)c4=O)c3Cl)c2Cl)ccc1CN[C@@H]1CN(C(C)=O)C[C@H]1O` [Compound C-49] had an EC50 of 10 to 100 nM. At PDL1/PD1, the IC50 is at most 10 nM.
On to `COc1nc(-c2cccc(-c3cccc(NC(=O)c4ccnn(C)c4=O)c3Cl)c2Cl)ccc1CN1CC[C@H](O)C1` [Compound C-50], for which the 50% effective concentration (EC50) on PD-1/PD-L1 interaction was at most 10 nM. Besides, the IC50 on PDL1/PD1 was at most 10 nM.
Take `CCOC(=O)C1CN(Cc2ccc(-c3cccc(-c4cccc(NC(=O)c5ccnn(C)c5=O)c4C)c3Cl)nc2OC)C1` [Compound C-53]: the EC50 at PD-1/PD-L1 interaction fell in the range of 10 to 100 nM. Further, at PDL1/PD1, the IC50 is at most 10 nM.
For `COc1nc(-c2cccc(-c3cccc(NC(=O)c4ccnn(C)c4=O)c3C)c2Cl)ccc1CN1CC(C(=O)O)C1` [Compound C-54], in that order: 10 to 100 nM and at most 10 nM.
The compound `CCOC(=O)[C@H]1CCN(Cc2ccc(-c3cccc(-c4cccc(NC(=O)c5ccnn(C)c5=O)c4C)c3Cl)nc2OC)C1` [Compound C-55] registered an EC50 on PD-1/PD-L1 interaction of 10 to 100 nM. The IC50 at PDL1/PD1 was at most 10 nM.
At PD-1/PD-L1 interaction, `COc1nc(-c2cccc(-c3cccc(NC(=O)c4ccnn(C)c4=O)c3C)c2Cl)ccc1CN1CC[C@H](C(=O)O)C1` [Compound C-56] gave an EC50 of 10 to 100 nM. Also, the IC50 at PDL1/PD1 is at most 10 nM.
For `CCOC(=O)[C@@H]1CCN(Cc2ccc(-c3cccc(-c4cccc(NC(=O)c5ccnn(C)c5=O)c4C)c3Cl)nc2OC)C1` [Compound C-57], in that order: 10 to 100 nM and at most 10 nM.
For the compound `COc1nc(-c2cccc(-c3cccc(NC(=O)c4ccnn(C)c4=O)c3C)c2Cl)ccc1CN1CC[C@@H](C(=O)O)C1` [Compound C-58], the EC50 at PD-1/PD-L1 interaction lay within 10 to 100 nM. Moreover, the IC50 on PDL1/PD1 is at most 10 nM.
For `COc1nc(-c2cccc(-c3cccc(NC(=O)c4ccnn(C)c4=O)c3C)c2Cl)ccc1CN1CC(C)(C(=O)O)C1` [Compound C-60], in that order: 10 to 100 nM and at most 10 nM.
Consider `COC(=O)C1(F)CN(Cc2ccc(-c3cccc(-c4cccc(NC(=O)c5ccnn(C)c5=O)c4C)c3Cl)nc2OC)C1` [Compound C-61], for which the EC50 on PD-1/PD-L1 interaction is 10 to 100 nM. For the same compound, at PDL1/PD1, the IC50 is at most 10 nM.
In turn, `COc1nc(-c2cccc(-c3cccc(NC(=O)c4ccnn(C)c4=O)c3C)c2Cl)ccc1CN1CC(NC(C)=O)C1` [Compound C-63] yielded an EC50 at PD-1/PD-L1 interaction of 10 to 100 nM. Also, the IC50 on PDL1/PD1 is at most 10 nM.
For `COc1nc(-c2cccc(-c3cccc(NC(=O)c4ccnn(C)c4=O)c3C)c2Cl)ccc1CN1CC2(C1)CN(C(C)=O)C2` [Compound C-64], in that order: 10 to 100 nM and at most 10 nM.
Consider `COc1nc(-c2cccc(-c3cccc(NC(=O)c4ccnn(C)c4=O)c3C)c2Cl)ccc1CN1CC[C@H](O)C1` [Compound C-65], for which, at PD-1/PD-L1 interaction, the EC50 is at most 10 nM. Also, the IC50 on PDL1/PD1 was at most 10 nM.
`COc1nc(-c2cccc(-c3cccc(NC(=O)c4ccnn(C)c4=O)c3C)c2Cl)ccc1CN1CC(O)C1` [Compound C-66] displayed an EC50 at PD-1/PD-L1 interaction of 10 to 100 nM. Besides, the IC50 on PDL1/PD1 was at most 10 nM.
In the same order, the values of `COc1nc(-c2cccc(-c3cccc(NC(=O)c4ccnn(C)c4=O)c3C)c2Cl)ccc1CN1CC[C@@H](O)C1` [Compound C-67] are at most 10 nM and at most 10 nM.
